Test results as given in patent US20220117938A1, “COMBINATON THERAPY WITH A DON PRODRUG AND AN IMMUNE CHECKPOINT INHIBITOR” (DRACEN PHARMACEUTICALS, INC., priority 2019, published 2022).

Tested on: Cells
Experiment: Cell viability, CTG luminescence, 72 h (Example 7, Experiment 1)
Assay type: cell-based
Procedure: Cells were cultured in the appropriate medium at 37° C. and 5% CO2 atmosphere. Cells were harvested by trypsinization, spun at 800 rpm for 5 min and resuspended in medium. The cell concentration was adjusted with medium and seeded at a cell density of 3000 cells in 90 μL per well in 96-well plates, and incubated overnight at 37° C. and 5% CO2. After 24 hours, the 1 mM test compound (either Compound 1 or DON) was successively diluted into 7 concentrations according to a three-fold gradient respectively, and 10 μl/well drug was added. The final concentrations were 100 μM, 33.33 μM, 11.11 μM, 3.7 μM, 1.24 μM, 0.41 μM, 0.14 μM, and 0.046 μM. The 100 μM Positive Control drug was successively diluted in 7 concentrations according to a three-fold gradient, and 10 μl/well drug was added. The final concentrations were 10 μM, 3.333 μM, 1.111 μM, 0.37 μM, 0.124 μM, 0.041 μM, 0.014 μM and 0.0046 μM. Cells were incubated for 72 h at 37° C. and 5% CO2. 100 μL CTG reagent was then added to each well. Plates were shaken for 2 min and placed 10 min at room temperature. Luminescence was recorded on Perkin Elmer Envision 2104 Multilabel Reader. IC50's were obtained by fitting curve using GraphPad Prism5 software. In all cases the treatment time was 72 h.

[1] = Homo sapiens, BT-474, 72 h, BT-474
[2] = Homo sapiens, BT-549, 72 h, BT-549
[3] = Homo sapiens, CAPAN-1, 72 h, Capan-1
[4] = Homo sapiens, HCC1395, 72 h, HCC1395
[5] = Homo sapiens, HCC1806, 72 h, HCC1806
[6] = Homo sapiens, HCC1937, 72 h, HCC1937
[7] = Homo sapiens, HCC1954, 72 h, HCC1954
[8] = Homo sapiens, HGC-27, 72 h, HGC-27
[9] = Homo sapiens, HL-60, 72 h, HL60
[10] = Homo sapiens, Huh-7, 72 h, HuH-7
[11] = Homo sapiens, KARPAS-299, 72 h, KARPAS-299
[12] = Homo sapiens, KATO III, KATO-III
[13] = Homo sapiens, LN-18, 72 h, LN-18
[14] = Homo sapiens, MDA-MB-231, 72 h, MDA-MB-231
[15] = Homo sapiens, MDA-MB-361, 72 h, MDA-MB-361
[16] = Homo sapiens, MKN-45, 72 h, MKN-45
[17] = Homo sapiens, MOLT-4, 72 h, MOLT-4
[18] = Homo sapiens, NCI-H23, 72 h, NCI-H23
[19] = Homo sapiens, NCI-H226, 72 h, NCI-H226
[20] = Homo sapiens, NCI-H358, 72 h, NCI-H358
[21] = Homo sapiens, NCI-H661, 72 h, NCI-H661
[22] = Homo sapiens, NCI-H929, 72 h, NCI-H929
[23] = Homo sapiens, NCI-H1299, 72 h, NCI-H1299
[24] = Homo sapiens, NCI-H1650, 72 h, NCI-H1650
[25] = Homo sapiens, OVCAR-3, 72 h, OVCAR-3
[26] = Homo sapiens, RPMI-7951, 72 h, RPMI-7951
[27] = Homo sapiens, SK-MES-1, 72 h, SK-MES-1
[28] = Homo sapiens, SNB-19, 72 h, SNB-19
[29] = Homo sapiens, SNU-449, 72 h, SNU-449
[30] = Homo sapiens, SW480, 72 h, SW480
[31] = Homo sapiens, U-937, 72 h, U-937
[32] = Homo sapiens, ZR-75-1, 72 h, ZR-75-1
[33] = Homo sapiens, ZR-75-30, 72 h, ZR-75-30

[N-]=[N+]=CC(=O)CC[C@H](N)C(=O)O [DON, 6-Diazo-5-oxo-L-norleucine, reference compound]
IC50 (AGS): 13.8 µM
IC50 (C3A): 2.4 µM
IC50 (Homo sapiens, 143B): 1.06 µM
IC50 (Homo sapiens, 769-P): 1.85 µM
IC50 [1]: 15.1 µM
IC50 [2]: 5.82 µM
IC50 [3]: 67.5 µM
IC50 (Homo sapiens, Daudi): 0.388 µM
IC50 [4]: 32.3 µM
IC50 [5]: 0.72 µM
IC50 [6]: 156 µM
IC50 [7]: 0.951 µM
IC50 [8]: 10 µM
IC50 [9]: 3.61 µM
IC50 [10]: 5.94 µM
IC50 (Homo sapiens, Jurkat): 0.368 µM
IC50 [11]: 0.309 µM
IC50 [12]: 2.96 µM
IC50 [13]: 2.71 µM
IC50 [14]: 1.78 µM
IC50 [15]: 235 µM
IC50 (Homo sapiens, MDA-MB-435S): 64.4 µM
IC50 [16]: 7.52 µM
IC50 [17]: 2.38 µM
IC50 (Homo sapiens, Malme-3M): 36.6 µM
IC50 [18]: 1.66 µM
IC50 [19]: 1.87 µM
IC50 (Homo sapiens, NCI-H322M): 4.78 µM
IC50 [20]: 0.974 µM
IC50 [21]: 70.6 µM
IC50 [22]: 11.8 µM
IC50 [23]: 1.82 µM
IC50 [24]: 1.89 µM
IC50 [25]: 31 µM
IC50 [26]: 3.47 µM
IC50 (Homo sapiens, Raji): 2.04 µM
IC50 (Homo sapiens, SH-SY5Y): 4.71 µM
IC50 [27]: 145 µM
IC50 [28]: 2.03 µM
IC50 [29]: 2.18 µM
IC50 [30]: 100 µM
IC50 (Homo sapiens, T98G): 1.38 µM
IC50 [31]: 0.566 µM
IC50 [32]: 101 µM
IC50 [33]: 982 µM
IC50 (NAMALWA): 0.333 µM
IC50 (RKO): 3.22 µM
IC50 (T84): 100 µM
IC50 (TT): 42.9 µM
IC50 (U266B1): 0.413 µM

CC(=O)N[C@@H](Cc1c[nH]c2ccccc12)C(=O)N[C@@H](CCC(=O)C=[N+]=[N-])C(=O)OC(C)C [Compound 1, Isopropyl (S)-2-((S)-2-acetamido-3-(1H-indol-3-yl)propanamido)-6-diazo-5-oxohexanoate]
IC50 (AGS): 19.9 µM
IC50 (C3A): 8.39 µM
IC50 (Homo sapiens, 143B): 2.44 µM
IC50 (Homo sapiens, 769-P): 2.08 µM
IC50 [1]: 9.8 µM
IC50 [2]: 30.8 µM
IC50 [3]: 29.3 µM
IC50 (Homo sapiens, Daudi): 1.07 µM
IC50 [4]: 59.8 µM
IC50 [5]: 3.86 µM
IC50 [6]: 156 µM
IC50 [7]: 3.33 µM
IC50 [8]: 13.3 µM
IC50 [9]: 2.03 µM
IC50 [10]: 1.27 µM
IC50 (Homo sapiens, Jurkat): 0.656 µM
IC50 [11]: 0.636 µM
IC50 [12]: 10.7 µM
IC50 [13]: 4.15 µM
IC50 [14]: 2.88 µM
IC50 [15]: 117 µM
IC50 (Homo sapiens, MDA-MB-435S): 45.4 µM
IC50 [16]: 1.65 µM
IC50 [17]: 3.03 µM
IC50 (Homo sapiens, Malme-3M): 19.9 µM
IC50 [18]: 3.53 µM
IC50 [19]: 14.5 µM
IC50 (Homo sapiens, NCI-H322M): 49.1 µM
IC50 [20]: 9.61 µM
IC50 [21]: 131 µM
IC50 [22]: 13.8 µM
IC50 [23]: 9.2 µM
IC50 [24]: 6.61 µM
IC50 [25]: 34.1 µM
IC50 [26]: 0.894 µM
IC50 (Homo sapiens, Raji): 3.13 µM
IC50 (Homo sapiens, SH-SY5Y): 9.1 µM
IC50 [27]: 71.5 µM
IC50 [28]: 3.21 µM
IC50 [29]: 38.6 µM
IC50 [30]: 88.1 µM
IC50 (Homo sapiens, T98G): 3.39 µM
IC50 [31]: 0.811 µM
IC50 [32]: 137 µM
IC50 [33]: 282 µM
IC50 (NAMALWA): 1.05 µM
IC50 (RKO): 3.64 µM
IC50 (T84): 125 µM
IC50 (TT): 77.1 µM
IC50 (U266B1): 0.451 µM
